Laboratory results: patent US10307357B2, “Prebiotic oral care compositions containing an alkyl glycoside” (COLGATE-PALMOLIVE COMPANY, priority 2013, dated 2019)

Assays:
Assay type in all cases: cell-based
[1] = tested on: Aggregatibacter actinomycetemcomitans; test: Twenty-four hour optical density growth in BHI; conditions: over 24 hours, control = 1
Protocol: (§1) The extent of growth of the tested bacteria in response to selected glycosides (β-methyl-D-galactoside and α-methyl-D-galactoside) was investigated by setting up growth curves in a nutritionally rich medium (brain heart infusion broth (BHI), Oxoid), over 24 hours. Late exponential growth phase liquid cultures were prepared by transferring the respective bacterium from blood agar plates to BHI and overnight incubation at 37° C. in an anaerobic atmosphere for A. viscosus, V. parvula, F. nucleatum, P. gingivalis, P. intermedia, T. forsythia, A. naeslundii, and C. sputigena, and in a 5% CO2 environment for S. salivarius, S. sanguinis, S. mitis, A. actinomycetemcomitans, S. mutans, S. sobrinus and S. gordonii. Overnight cultures were transferred to BHI and adjusted to a concentration of 1×10^7 CFU/ml (colony forming units per ml) by measuring the optical density at 600 nm (OD600) (BioRad SmartSpec 3000). For each strain, 200 μl of the bacterial suspension was added to a 96-well plate containing 20 μl of the respective glycosides. Final concentrations of the glycosides were set to 5, 10, 20 and 25 μmol/ml. […] Plates were incubated as previously described. For each combination of bacterium/glycoside, and for each of their respective controls (i.e. the particular bacterium in the nutritionally rich medium with no glycoside), the optical density was measured at 630 nm (OD630) at 0 h and 24 h (Thermo Scientific Multiskan Ascent). Additionally, the OD630 for combinations of bacterium/glycosides grown in a 5% CO2 environment were also measured every hour between 0 h and 9 h. […] The experiment was carried out on three different days (thus providing 3 biological replicas) and on each day the experiment was carried out in quadruple (thus providing 4 technical replicas) for each combination of bacterium with glycoside and for each control. For each day and for each combination, the average (mean) of the values obtained (as detailed above) for the four technical replicas was calculated to provide a single value for each combination on each day. The values shown in Tables 5 to 6, below, are the average (mean) of the three single values obtained for each combination of bacterium with glycoside (α-Methyl-D-Galactoside=α-MDG; β-Methyl-D-Galactoside=β-MDG).

Porphyromonas gingivalis [2] = test: Twenty-four hour optical density growth in BHI; conditions: over 24 hours, control = 1
Protocol: as §1

Streptococcus gordonii = test: Twenty-four hour optical density growth in BHI; conditions: over 24 hours, control = 1
Protocol: as §1

Streptococcus mitis [3] = test: Twenty-four hour optical density growth in BHI; conditions: over 24 hours, control = 1
Protocol: as §1

Streptococcus mutans = test: Twenty-four hour optical density growth in BHI; conditions: over 24 hours, control = 1
Protocol: as §1

Streptococcus salivarius = test: Twenty-four hour optical density growth in BHI; conditions: over 24 hours, control = 1
Protocol: as §1

Actinomyces naeslundii = test: Twenty-four hour biofilm growth (crystal violet); conditions: 24 hours, control = 1
Protocol: (§2) The increase in biofilm formation of the tested bacteria in response to selected glycosides (β-methyl-D-galactoside and α-methyl-D-galactoside) was investigated by setting up biofilm growth assays in a nutritionally rich medium (brain heart infusion broth (BHI), Oxoid), over 24 hours. Late exponential growth phase liquid cultures were prepared by transferring the respective bacterium from blood agar plates to BHI and overnight incubation at 37° C. in an anaerobic atmosphere for A. viscosus, V. parvula, P. gingivalis, P. intermedia, T. forsythia, A. naeslundii, and C. sputigena, and in a 5% CO2 environment for S. salivarius, S. sanguinis, S. mitis, A. actinomycetemcomitans, S. mutans, and S. gordonii. Overnight cultures were transferred to BHI and adjusted to a concentration of 1×10^7 CFU/ml by measuring the optical density at 600 nm (OD600) (BioRad SmartSpec 3000). For each strain, 200 μl of the bacterial suspension was added to a 96-well plate containing 20 μl of the respective glycosides. Final concentrations of the glycosides were set to 5, 10, 20 and 25 μmol/ml. […] Additionally, for each bacterium tested, a background control, to correct for background staining, was added. This background control contained the bacterium tested and 0.03 weight % chlorhexidine, as an antiseptic. Plates were incubated as previously described. After 24 hrs the supernatant was removed from the wells of the plates. The wells were washed twice with 1×100 μL PBS (phosphate buffered saline), fixed for 20 minutes with 96% vol. ethanol (96% vol. solution in water) and the biofilm retained at the bottom of the wells was stained with 1 weight % crystal violet (1 weight % solution in water). The bound dye was dissolved with 5% vol. acetic acid (5% vol. solution in water). Quantification of the stained biofilm was performed by measuring the absorbance at 630 nm using a Multiskan Ascent microplate reader (Thermo Scientific). […] The experiment was carried out on three different days (thus providing 3 biological replicas) and each day the experiment was carried out in quadruple (thus providing 4 technical replicas) for each combination of bacterium with glycoside and for each control. For each day and for each combination, the average (mean) of the values obtained (as detailed above) for the four technical replicas was calculated to provide a single value for each combination on each day. The values shown in Tables 7 to 8, below, are the average (mean) of the three single values obtained for each combination of bacterium with glycoside.

Actinomyces viscosus = test: Twenty-four hour biofilm growth (crystal violet); conditions: 24 hours, control = 1
Protocol: as §2

Capnocytophaga sputigena = test: Twenty-four hour biofilm growth (crystal violet); conditions: 24 hours, control = 1
Protocol: as §2

Porphyromonas gingivalis [4] = test: Twenty-four hour biofilm growth (crystal violet); conditions: 24 hours, control = 1
Protocol: as §2

Streptococcus mitis [5] = test: Twenty-four hour biofilm growth (crystal violet); conditions: 24 hours, control = 1
Protocol: as §2

Tannerella forsythia = test: Twenty-four hour biofilm growth (crystal violet); conditions: 24 hours, control = 1
Protocol: as §2

CO[C@@H]1O[C@H](CO)[C@H](O)[C@H](O)[C@H]1O [β-methyl-D-galactoside]
maximal OD630 divided by control (extent of growth) ([1]; 5 μmol/ml): 0.7099
maximal OD630 divided by control (extent of growth) ([1]; 10 μmol/ml): 0.7723
maximal OD630 divided by control (extent of growth) ([1]; 20 μmol/ml): 0.7373
maximal OD630 divided by control (extent of growth) ([1]; 25 μmol/ml): 0.7472
maximal OD630 divided by control (extent of growth) (Porphyromonas gingivalis [2]; 5 μmol/ml): 0.8852
maximal OD630 divided by control (extent of growth) (Porphyromonas gingivalis [2]; 10 μmol/ml): 0.9738
maximal OD630 divided by control (extent of growth) (Porphyromonas gingivalis [2]; 20 μmol/ml): 0.9498
maximal OD630 divided by control (extent of growth) (Porphyromonas gingivalis [2]; 25 μmol/ml): 0.9364
maximal OD630 divided by control (extent of growth) (Streptococcus gordonii; 5 μmol/ml): 0.9811
maximal OD630 divided by control (extent of growth) (Streptococcus gordonii; 10 μmol/ml): 0.9760
maximal OD630 divided by control (extent of growth) (Streptococcus gordonii; 20 μmol/ml): 0.9954
maximal OD630 divided by control (extent of growth) (Streptococcus gordonii; 25 μmol/ml): 1.0054
maximal OD630 divided by control (extent of growth) (Streptococcus mitis [3]; 5 μmol/ml): 0.8435
maximal OD630 divided by control (extent of growth) (Streptococcus mitis [3]; 10 μmol/ml): 0.8256
maximal OD630 divided by control (extent of growth) (Streptococcus mitis [3]; 20 μmol/ml): 0.9114
maximal OD630 divided by control (extent of growth) (Streptococcus mitis [3]; 25 μmol/ml): 0.8116
maximal OD630 divided by control (extent of growth) (Streptococcus mutans; 5 μmol/ml): 0.9473
maximal OD630 divided by control (extent of growth) (Streptococcus mutans; 10 μmol/ml): 0.9083
maximal OD630 divided by control (extent of growth) (Streptococcus mutans; 20 μmol/ml): 0.7929
maximal OD630 divided by control (extent of growth) (Streptococcus mutans; 25 μmol/ml): 0.5618
maximal OD630 divided by control (extent of growth) (Streptococcus salivarius; 5 μmol/ml): 1.2275
maximal OD630 divided by control (extent of growth) (Streptococcus salivarius; 10 μmol/ml): 1.5208
maximal OD630 divided by control (extent of growth) (Streptococcus salivarius; 20 μmol/ml): 1.7353
maximal OD630 divided by control (extent of growth) (Streptococcus salivarius; 25 μmol/ml): 1.7445
biofilm OD 630 nm divided by control (biofilm growth) (Actinomyces naeslundii; 5 μmol/ml): 0.9907
biofilm OD 630 nm divided by control (biofilm growth) (Actinomyces naeslundii; 10 μmol/ml): 0.9316
biofilm OD 630 nm divided by control (biofilm growth) (Actinomyces naeslundii; 20 μmol/ml): 0.9697
biofilm OD 630 nm divided by control (biofilm growth) (Actinomyces naeslundii; 25 μmol/ml): 0.9727
biofilm OD 630 nm divided by control (biofilm growth) (Actinomyces viscosus; 5 μmol/ml): 0.5917
biofilm OD 630 nm divided by control (biofilm growth) (Actinomyces viscosus; 10 μmol/ml): 0.5767
biofilm OD 630 nm divided by control (biofilm growth) (Actinomyces viscosus; 20 μmol/ml): 0.6104
biofilm OD 630 nm divided by control (biofilm growth) (Actinomyces viscosus; 25 μmol/ml): 0.6322
biofilm OD 630 nm divided by control (biofilm growth) (Capnocytophaga sputigena; 5 μmol/ml): 0.7253
biofilm OD 630 nm divided by control (biofilm growth) (Capnocytophaga sputigena; 10 μmol/ml): 0.8100
biofilm OD 630 nm divided by control (biofilm growth) (Capnocytophaga sputigena; 20 μmol/ml): 0.8487
biofilm OD 630 nm divided by control (biofilm growth) (Capnocytophaga sputigena; 25 μmol/ml): 0.9428
biofilm OD 630 nm divided by control (biofilm growth) (Porphyromonas gingivalis [4]; 5 μmol/ml): 0.9407
biofilm OD 630 nm divided by control (biofilm growth) (Porphyromonas gingivalis [4]; 10 μmol/ml): 0.9326
biofilm OD 630 nm divided by control (biofilm growth) (Porphyromonas gingivalis [4]; 20 μmol/ml): 0.9049
biofilm OD 630 nm divided by control (biofilm growth) (Porphyromonas gingivalis [4]; 25 μmol/ml): 0.9163
biofilm OD 630 nm divided by control (biofilm growth) (Streptococcus mitis [5]; 5 μmol/ml): 1.3127
biofilm OD 630 nm divided by control (biofilm growth) (Streptococcus mitis [5]; 10 μmol/ml): 1.1242
biofilm OD 630 nm divided by control (biofilm growth) (Streptococcus mitis [5]; 20 μmol/ml): 1.1524
biofilm OD 630 nm divided by control (biofilm growth) (Streptococcus mitis [5]; 25 μmol/ml): 1.1692
biofilm OD 630 nm divided by control (biofilm growth) (Tannerella forsythia; 5 μmol/ml): 0.7494
biofilm OD 630 nm divided by control (biofilm growth) (Tannerella forsythia; 10 μmol/ml): 0.6979
biofilm OD 630 nm divided by control (biofilm growth) (Tannerella forsythia; 20 μmol/ml): 0.9049
biofilm OD 630 nm divided by control (biofilm growth) (Tannerella forsythia; 25 μmol/ml): 0.8051
